According to patent publication US20140005153A1, “Off-Note Masking” (GIVAUDAN S. A., priority 2011, published 2014):

Tests used:
[1] = sweetness enhancement detection level; conditions: in vivo
Excerpt: (§1) There is also provided an orally-receivable or -ingestible composition comprising an off-note-masking proportion of 1-(2-hydroxyphenyl)-3-(pyridin-4-yl)propane-1-one or a salt thereof 1-(2-hydroxyphenyl)-3-(pyridin-4-yl)propane-1-one (hereinafter referred to as “Compound 1”) is disclosed in United States published application No. 2010/272656. In this publication, the compound is described as an effective sweetness enhancer. It is a surprising feature of this disclosure that the same compound can deliver an off-note- or off-taste-masking effect at a concentration far below the concentration at which it is perceived as sweet. The minimum level at which the sweetness enhancement effect of Compound 1 can be detected is 35 ppm, but the off-note- or off-taste-masking effect of the masker can be as low as 2.5 ppm. A practical maximum for off-note masking is 10 ppm.

[2] = off-note / off-taste masking, lowest effective level; conditions: in vivo
Excerpt: as §1

[3] = blind bench-top tasting panel, soy yogurt; format: in vivo
Excerpt: (§2) The following compositions are made and tested blind. Using a blind bench-top tasting panel (consisting of 4 to 8 panelists), panelists were asked to record the sensory attribute differences between the control and example samples, specifically focusing on off-notes (reduction or differences).
Soy Yogurt (O'Soy Organic Soy Yogurt Strawberry Flavor—5 g Protein Per 4 oz Serving)

[4] = blind bench-top tasting panel, fortified mayonnaise; format: in vivo
Experimental: as §2
Fortified Mayonnaise (Smart Balance Omega Plus Light Mayonnaise Dressing—Omega-3 (500 Mg Per 15 g Serving) and Plant Sterols (100 Mg Per 15 g Serving)

[5] = blind bench-top tasting panel, OTC syrup; format: in vivo
Experimental: as §2, with “differences). Over-the-Counter (OTC) Syrup (Kroger Daytime Cold/Flu Relief (Acetaminophen 325 mg per 15 mL; Dextromethorphan HBr 10 mg per 15 mL; Phenylephrine HCl 5 mg per 15 mL))” for “differences).”

[6] = blind bench-top tasting panel, proteinaceous supplement; format: in vivo
Excerpt: as §2
Proteinaceous Supplement (GNC Pro Performance 100% Whey Protein)

[7] = blind bench-top tasting panel, cocoa; format: in vivo
Excerpt: as §2
Cocoa (Dilute 10% in Water to Consume) (Kroger Cocoa Unsweetened)

[8] = 0.002% by weight in cocoa (unsweetened)
[9] = 0.0015% by weight in whey protein supplement

| Compound | minimum level at which the sweetness enhancement effect can be detected [1] | off-note- or off-taste-masking effect can be as low as [2] | panelist preference over the control ([3]; 0.002% by weight in soy yogurt) | panelist preference over the control ([4]; 0.00025% by weight in fortified mayonnaise) | panelist preference over the control ([5]; 0.003% by weight in OTC syrup) | panelist preference over the control ([6]; 0.003% by weight in whey protein supplement) | panelist preference over the control [7, 8] | panelist preference over the control ([4]; 0.0005% by weight in fortified mayonnaise) | panelist preference over the control [6, 9] | panelist preference over the control ([3]; 0.001% by weight in soy yogurt) | panelist preference over the control ([4]; 0.001% by weight in fortified mayonnaise) | panelist preference over the control ([5]; 0.002% by weight in OTC syrup) | panelist preference over the control ([7]; 0.001% by weight in cocoa (unsweetened)) |
| --- | --- | --- | --- | --- | --- | --- | --- | --- | --- | --- | --- | --- | --- |
| O=C(CCc1ccncc1)c1ccccc1O [Compound 1, 1-(2-hydroxyphenyl)-3-(pyridin-4-yl)propane-1-one] | 35 ppm | 2.5 ppm | preferred | preferred | preferred | preferred | preferred |  |  |  |  |  |  |
| CC1CCC(CCCC(=O)O)C1(C)C (centres unmarked) [Compound 2, 4-[2,2,3-trimethyl-cyclopentyl]-butanoic acid] |  |  | preferred |  | preferred |  | preferred | preferred | preferred |  |  |  |  |
| CCc1c(C)c2ccc(OC(C)C(=O)O)c(C)c2oc1=O (centres unmarked) [Compound 3, 2-[(3-ethyl-4,8-dimethyl-2-oxo-2H-chromen-7-yl)oxy]propanoic acid] |  |  |  |  |  |  |  |  | preferred | preferred | preferred | preferred | preferred |
